Test results as given in patent publication US12479827B2, “Heteroaromatic carboxamide derivatives as plasma kallikrein inhibitors” (Boehringer Ingelheim International GmbH, priority 2020, dated 2025).

How the values were obtained:
Type in all cases: biochemical
Human PKK = molecular target: T1, Human PKK (Homo sapiens, UniProt P03952); experiment: Inhibition of PKK using an endpoint assay (human PKK); settings: fluorogenic substrate H-Pro-Phe-Arg-AMC, 1 h room temperature, method names human or rat PKK, table does not say which
T1 construct: purchased Enzyme Research Laboratories
Summary of the method: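 Human PKK inhibition measured in 100 mM Tris, 150 mM NaCl, pH 7.8, 0.1% BSA, 0.05% Tween20, 1% DMSO. Endpoint format: reaction stopped with PPACK II at 1 μM final, fluorescence read at 355 nm excitation/460 nm emission.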

[1] = molecular target: T2, PKK in kaolin activated human platelet poor plasma (Homo sapiens, UniProt P03952); experiment: Inhibition of PKK in kaolin activated human PPP; settings: 25-750 μg/mL kaolin, global fit, text b200 calls the values IC90;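 also: readout is the rate of fluorogenic substrate cleavage in rfu per min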
T2 construct: Platelet poor plasma (PPP) obtained from human wholeblood; from tissue
Protocol: Platelet poor plasma (PPP) obtained from human wholeblood, anticoagulated with Na-Citrate, is incubated with various concentrations of the test compound together with either 25, 75, 250, or 750 μg/mL kaolin in assay buffer for 20 min at 37° C. such that for each kaolin dose used a concentration response is obtained for the test compound.

human TK1 = molecular target: T3, human TK1 (Homo sapiens, UniProt P06870); experiment: Inhibition of TK1 (Ki); settings: activated human TK1, substrate H-Pro-Phe-Arg-AMC, 24° C.
T3 construct: purchased R&D Systems
Protocol: The ability of compounds of formula (I) to inhibit plasma kallikrein (PKK), Factor XIIa (FXIIa), Factor XIa (FXIa), Factor Xa (FXa), Factor IIa (alpha-thrombin; FIIa), plasmin, trypsin, tissue kallikrein 1 (TK1), Factor VIIa (FVIIa), or FVIIa complexed with Tissue Factor, phospholipids and CaCl2 (FVIIa/TF/PL/CaCl2) is determined using the following biochemical assays in assay buffer (100 mM Tris, 150 mM NaCL, adjusted to a pH of 7.8 with HCl, and containing 0.1% (w/v) BSA and 0.05% (v/v) Tween20) in the presence of 1% (v/v) DMSO:
Prior to the assay, human TK1 (R&D Systems) is activated by incubation with human trypsin (Calbiochem) in a 1:10,000 ratio for 15 min at 37° C. For assaying TK1 inhibitory activity, activated TK1 (31.25 nM or 1 U/mL) is incubated at 24° C. with 0.1 mM fluorogenic substrate H-Pro-Phe-Arg-AMC (11295 from Bachem) and various concentrations of the test compound in assay buffer. Measurements are performed in a kinetic interval every 2nd minute for 16 min using a Spectramax M5 (Molecular Devices) with the following settings of the wavelength excitation of 350 nm and wavelength emission of 450 nm.
The pIC50 values are then fitted using a four-parametric fitting procedure using GraphPad Prism (version 6; GraphPad Software, Inc.). Respective Ki values are obtained by correction of the IC50 values for the respective KM value of the used substrate (see Table A for the obtained KM values of the used substrates) using the following formula:
[formula] Where the IC50 is in molar and the KM value in mM.

T2 sequence (P03952 391-638 limits assumed): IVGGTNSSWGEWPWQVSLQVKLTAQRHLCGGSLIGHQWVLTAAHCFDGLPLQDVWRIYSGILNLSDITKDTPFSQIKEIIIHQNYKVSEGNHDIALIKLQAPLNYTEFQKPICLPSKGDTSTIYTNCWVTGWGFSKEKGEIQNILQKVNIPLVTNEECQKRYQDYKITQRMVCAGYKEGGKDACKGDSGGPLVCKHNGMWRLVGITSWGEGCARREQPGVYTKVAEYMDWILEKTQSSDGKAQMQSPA
T2 sequence (P03952 20-390 limits assumed): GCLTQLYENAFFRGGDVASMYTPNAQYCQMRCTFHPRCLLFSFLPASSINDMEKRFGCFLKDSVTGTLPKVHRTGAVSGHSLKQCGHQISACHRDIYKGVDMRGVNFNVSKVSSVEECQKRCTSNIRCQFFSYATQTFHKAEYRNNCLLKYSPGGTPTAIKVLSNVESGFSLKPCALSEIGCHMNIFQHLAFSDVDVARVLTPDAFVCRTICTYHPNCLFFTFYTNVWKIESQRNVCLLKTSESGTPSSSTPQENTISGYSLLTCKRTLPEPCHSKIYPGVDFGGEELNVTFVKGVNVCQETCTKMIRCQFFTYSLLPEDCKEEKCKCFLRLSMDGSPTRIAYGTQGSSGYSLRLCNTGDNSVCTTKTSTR
T3 sequence (P06870 25-262): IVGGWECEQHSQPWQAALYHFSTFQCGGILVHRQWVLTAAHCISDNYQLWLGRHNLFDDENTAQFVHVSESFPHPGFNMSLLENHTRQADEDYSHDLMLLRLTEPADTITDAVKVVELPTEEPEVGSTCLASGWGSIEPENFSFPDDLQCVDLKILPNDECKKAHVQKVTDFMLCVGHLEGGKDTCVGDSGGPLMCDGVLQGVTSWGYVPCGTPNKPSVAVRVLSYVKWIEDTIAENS
T1 sequence (P03952 20-390 limits assumed): as the sequence (P03952 20-390 limits assumed) above
T1 sequence (P03952 391-638 limits assumed): as the sequence (P03952 391-638 limits assumed) above

SMILES	IC50 (Human PKK)	IC50 [1]	Ki (human TK1)
Cc1nc(N2CC3CC3C2)ccc1Cn1cc(C(=O)N[C@@H]2CCc3c2ncn3C)c(C(C)(C)O)n1 (stereo partly drawn) [Example 125, 1-[(6-{3-Azabicyclo[3.1.0]hexan-3-yl}-2-methylpyridin-3-yl)methyl]-3-(2-hydroxypropan-2-yl)-N-[(4R)-1-methyl-1H,4H,5H,6H-cyclopenta-[d]imidazol-4-yl]-1H-pyrazole-4-carboxamide]	1.1 nM	2740 nM	> 10000 nM
COCc1nn(Cc2ccc(N3CC4C(C3)C4(F)F)nc2C)cc1C(=O)N[C@@H]1CCc2c1ncn2C (stereo partly drawn) [Example 126, 1-[(6-{6,6-Difluoro-3-azabicyclo[3.1.0]hexan-3-yl}-2-methylpyridin-3-yl)methyl]-3-(methoxymethyl)-N-[(4R)-1-methyl-1H,4H,5H,6H-cyclopenta[d]imidazol-4-yl]-1H-pyrazole-4-carboxamide]	0.6 nM	681 nM	> 10000 nM
Cn1cnc2c1CC[C@H]2NC(=O)c1cnn(Cc2ccc(N3CC4CC4C3)nc2Cl)c1 (stereo partly drawn) [Example 127, 1-[(6-{3-Azabicyclo[3.1.0]hexan-3-yl}-2-chloropyridin-3-yl)methyl]-N-[(4R)-1-methyl-1H,4H,5H,6H-cyclopenta[d]imidazol-4-yl]-1H-pyrazole-4-carboxamide]	1.2 nM	1680 nM	> 10000 nM
Cc1nc(N2CC3CC3C2)c(C#N)cc1Cn1cc(C(=O)N[C@@H]2CCc3c2ncn3C)cn1 (stereo partly drawn) [Example 128, 1-[(6-{3-Azabicyclo[3.1.0]hexan-3-yl}-5-cyano-2-methylpyridin-3-yl)methyl]-N-[(4R)-1-methyl-1H,4H,5H,6H-cyclopenta[d]imidazol-4-yl]-1H-pyrazole-4-carboxamide]	5.1 nM	1390 nM	> 10000 nM
Cn1cnc2c1CC[C@H]2NC(=O)c1cnn(Cc2ccc(N3CC4CC4C3)nc2)c1 (stereo partly drawn) [Example 131, 1-[(6-{3-Azabicyclo[3.1.0]hexan-3-yl}pyridin-3-yl)methyl]-N-[(4R)-1-methyl-1H,4H,5H,6H-cyclopenta[d]imidazol-4-yl]-1H-pyrazole-4-carboxamide]	4.3 nM	962 nM	> 10000 nM
Cc1nc(N2CC3CC3C2)ccc1Cn1cc(C(=O)N[C@@H]2CCc3c2ncn3C)cn1 (stereo partly drawn) [Example 133, 1-[(6-{3-Azabicyclo[3.1.0]hexan-3-yl}-2-methylpyridin-3-yl)methyl]-N-[(4R)-1-methyl-1H,4H,5H,6H-cyclopenta[d]imidazol-4-yl]-1H-pyrazole-4-carboxamide]	1.6 nM	560 nM	> 10000 nM
Cn1cnc2c1CC[C@H]2NC(=O)c1cnn(Cc2ccc(N3CC4CC4C3)nc2C(F)(F)F)c1 (stereo partly drawn) [Example 134, 1-[(6-{3-Azabicyclo[3.1.0]hexan-3-yl}-2-(trifluoromethyl)pyridin-3-yl)methyl]-N-[(4R)-1-methyl-1H,4H,5H,6H-cyclopenta[d]imidazol-4-yl]-1H-pyrazole-4-carboxamide]	1.7 nM	1030 nM	> 10000 nM
Cn1cnc2c1CC[C@H]2NC(=O)c1cn(Cc2ccc(N3CC4CC4C3)nc2)nn1 (stereo partly drawn) [Example 135, 1-[(6-{3-Azabicyclo[3.1.0]hexan-3-yl}pyridin-3-yl)methyl]-N-[(4R)-1-methyl-1H,4H,5H,6H-cyclopenta[d]imidazol-4-yl]-1H-1,2,3-triazole-4-carboxamide]	4.2 nM	909 nM	> 10000 nM
Cc1nc(N2CC3C(C2)C3(F)F)ncc1Cn1cnc(C(=O)N[C@@H]2CCc3c2ncn3C)c1 (stereo partly drawn) [Example 136, 1-[(2-{6,6-Difluoro-3-azabicyclo[3.1.0]hexan-3-yl}-4-methylpyrimidin-5-yl)methyl]-N-[(4R)-1-methyl-1H,4H,5H,6H-cyclopenta[d]imidazol-4-yl]-1H-imidazole-4-carboxamide]	2 nM	310 nM	> 10000 nM
Cc1nc(N2CC3CC3C2)ncc1Cn1cc(C(=O)N[C@@H]2CCc3c2ncn3C)nn1 (stereo partly drawn) [Example 137, 1-[(2-{3-Azabicyclo[3.1.0]hexan-3-yl}-4-methylpyrimidin-5-yl)methyl]-N-[(4R)-1-methyl-1H,4H,5H,6H-cyclopenta[d]imidazol-4-yl]-1H-1,2,3-triazole-4-carboxamide]	4.4 nM	756 nM	> 10000 nM
Cc1nc(N2CC3(CC3)C2)ccc1Cn1cc(C(=O)N[C@@H]2CCc3c2ncn3C)cn1 [Example 169, 1-[(6-{5-Azaspiro[2.3]hexan-5-yl}-2-methylpyridin-3-yl)methyl]-N-[(4R)-1-methyl-1H,4H,5H,6H-cyclopenta[d]imidazol-4-yl]-1H-pyrazole-4-carboxamide]	0.6 nM	485 nM	> 10000 nM
Cc1nc(N2CC3(CC3)C2)ccc1Cn1cnc(C(=O)N[C@@H]2CCc3c2ncn3C)c1 [Example 170, 1-[(6-{5-Azaspiro[2.3]hexan-5-yl}-2-methylpyridin-3-yl)methyl]-N-[(4R)-1-methyl-1H,4H,5H,6H-cyclopenta[d]imidazol-4-yl]-1H-imidazole-4-carboxamide]	0.8 nM	469 nM	> 10000 nM
Cc1nc(N2CC3CC3C2)ncc1Cn1cnc(C(=O)N[C@@H]2CCc3c2ncn3C)c1 (stereo partly drawn) [Example 171, 1-[(2-{3-Azabicyclo[3.1.0]hexan-3-yl}-4-methylpyrimidin-5-yl)methyl]-N-[(4R)-1-methyl-1H,4H,5H,6H-cyclopenta[d]imidazol-4-yl]-1H-imidazole-4-carboxamide]	2.6 nM	268 nM	> 10000 nM
Cc1nc(N2CC3CC3C2)ccc1Cn1cc(C(=O)N[C@@H]2CCc3c2ncn3C)c2cncnc21 (stereo partly drawn) [Example 173, 7-[(6-{3-Azabicyclo[3.1.0]hexan-3-yl]-2-methylpyridin-3-yl)methyl]-N-[(4R)-1-methyl-1H,4H,5H,6H-cyclopenta[d]imidazol-4-yl]-7H-pyrrolo[2,3-d]pyrimidine-5-carboxamide]	0.6 nM	729 nM	> 10000 nM
Cc1nc(N2CC3C(C2)C3(F)F)ncc1Cn1cc(C(=O)N[C@@H]2CCc3c2ncn3C)c2cncnc21 (stereo partly drawn) [Example 175, 7-[(2-{6,6-Difluoro-3-azabicyclo[3.1.0]hexan-3-yl}-4-methylpyrimidin-5-yl)methyl]-N-[(4R)-1-methyl-1H,4H,5H,6H-cyclopenta[d]imidazol-4-yl]-7H-pyrrolo[2,3-d]pyrimidine-5-carboxamide]	2.9 nM	822 nM	> 10000 nM
Cc1nc(N2CC3CC3C2)ncc1Cn1cc(C(=O)N[C@@H]2CCc3c2ncn3C)cn1 (stereo partly drawn) [Example 177, 1-[(2-{3-Azabicyclo[3.1.0]hexan-3-yl}-4-methylpyrimidin-5-yl)methyl]-N-[(4R)-1-methyl-1H,4H,5H,6H-cyclopenta[d]imidazol-4-yl]-1H-pyrazole-4-carboxamide]	5.5 nM	1180 nM	> 10000 nM
Cc1nc(N2CC3C(C2)C3(F)F)ncc1Cn1cc(C(=O)N[C@@H]2CCc3c2ncn3C)nn1 (stereo partly drawn) [Example 178, 1-[(2-{6,6-Difluoro-3-azabicyclo[3.1.0]hexan-3-yl}-4-methylpyrimidin-5-yl)methyl]-N-[(4R)-1-methyl-1H,4H,5H,6H-cyclopenta[d]imidazol-4-yl]-1H-1,2,3-triazole-4-carboxamide]	5 nM	844 nM	> 10000 nM
Cc1nc(N2CC3CC3C2)ccc1Cc1ccc(C(=O)N[C@@H]2CCc3c2ncn3C)o1 (stereo partly drawn) [Example 181, 5-[(6-{3-Azabicyclo[3.1.0]hexan-3-yl}-2-methylpyridin-3-yl)methyl]-N-[(4R)-1-methyl-1H,4H,5H,6H-cyclopenta[d]imidazol-4-yl]furan-2-carboxamide]	10.9 nM	22300 nM	> 10000 nM
Cn1cnc2c1CC[C@H]2NC(=O)c1cnn(Cc2ccc(N3CC4CC4C3)c(C#N)c2)c1 (stereo partly drawn) [Example 190, 1-[(4-{3-Azabicyclo[3.1.0]hexan-3-yl}-3-cyanophenyl)methyl]-N-[(4R)-1-methyl-1H,4H,5H,6H-cyclopenta[d]imidazol-4-yl]-1H-pyrazole-4-carboxamide]	1.5 nM	1080 nM	> 10000 nM
